Here are results for 4 molecules from patent US20020086885A1, “Pharmaceutical composition” (priority 1998, published 2002).

Counter-ions that a name gives are not always drawn.

The subject of assay [1] is obese, diabetic KKA^y mice. The following applies: cited from earlier work.
In assay [2] the test system is noninsulin-dependent diabetic mellitus (NIDDM) patients. The assay can be described thus: Concomitant administration of pioglitazone hydrochloride and mazindol in NIDDM patients. Format: in vivo, human.
Excerpt: Effects of concomitant administration of pioglitazone hydrochloride and mazindol in noninsulin-dependent diabetic mellitus (NIDDM) patients were studied.
The test system of another assay is obese rats. The following applies: given together with troglitazone; cited from earlier work.

As to `N=C(N)NCCC(=O)O` [3-Guanidinopropionic acid], in assay [1], the “weight gain in mice treated with pioglitazone hydrochloride” value is reported as “antagonizes in a dose-dependent manner”. Take `CCc1ccc(CCOc2ccc(CC3SC(=O)NC3=O)cc2)nc1` (stereo not shown) [pioglitazone hydrochloride, 5-[4-[2-(5-ethyl-2-pyridyl)ethoxy]benzyl]-2,4-thiazolidinedione]: the “body weight increased by” value in assay [2] (NIDDM patients, pioglitazone hydrochloride alone 45 mg/day oral, 12±2 weeks, means±standard deviation of 50 samples) stood at 0.72 ± 2.06 kg. The molecule `OC1(c2ccc(Cl)cc2)c2ccccc2C2=NCCN21` (stereo not shown) [mazindol] showed a body weight change in assay [2] (one NIDDM patient, mazindol 0.5 mg/day oral with placebo, 12 weeks, baseline 60.0 kg) of 0.00 kg. As to `C[C@H](Cc1ccc2c(c1)OC(C(=O)[O-])(C(=O)[O-])O2)NC[C@H](O)c1cccc(Cl)c1.[Na+].[Na+]` [CL316243], the “weight gain in brown adipose tissues caused by troglitazone” value in the assay with obese rats is on record as “completely inhibited”.
